Patent US20080194606A1, “Pyrazolyl-Amino-Substituted Pyrimidines and Their Use in the Treatment of Cancer” (ASTRAZENECA, priority 2005, published 2008)

biological target: T1, human Trk A kinase (Homo sapiens, UniProt P04629); assay: Trk A Assay (Alphascreen kinase assay); format: biochemical; details: 70 μM ATP, 20 minutes, room temperature, read-out: IC50 (Trk inhibitory activity)
T1 construct: HIS; made in house; host or cells: SF9 insect cells
Method: Trk A kinase activity was measured for its ability to phosphorylate synthetic tyrosine residues within a generic polypeptide substrate using an Amplified Luminescent Proximity Assay (Alphascreen) technology (PerkinElmer, 549 Albany Street, Boston, Mass.).
To measure Trk A kinase activity, the intracellular domain of a HIS-tagged human Trk A kinase (amino acids 442-796 of Trk A, Swiss-Prot Primary Accession Number P04629) was expressed in SF9 cells and purified using standard nickel column chromatography. After incubation of the kinase with a biotinylated substrate and adenosine triphosphate (ATP) for 20 minutes at room temperature, the kinase reaction was stopped by the addition of 30 mM ethylenediaminetetraacetic acid (EDTA). The reaction was performed in 384 well microtitre plates and the reaction products were detected with the addition of strepavidin coated Donor Beads and phosphotyrosine-specific antibodies coated Acceptor Beads using the EnVision Multilabel Plate Reader after an overnight incubation at room temperature.

T1 sequence (P04629 442-796): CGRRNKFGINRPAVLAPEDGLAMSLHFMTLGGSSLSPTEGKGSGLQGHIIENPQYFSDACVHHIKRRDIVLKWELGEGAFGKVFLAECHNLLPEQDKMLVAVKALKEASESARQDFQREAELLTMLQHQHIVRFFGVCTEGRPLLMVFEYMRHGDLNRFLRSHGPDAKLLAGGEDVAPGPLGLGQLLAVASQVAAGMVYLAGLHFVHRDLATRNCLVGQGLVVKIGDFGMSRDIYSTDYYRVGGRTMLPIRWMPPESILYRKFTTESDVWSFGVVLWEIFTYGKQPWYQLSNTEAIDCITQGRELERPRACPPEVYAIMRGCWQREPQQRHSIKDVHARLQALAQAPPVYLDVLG

Question: `C[C@H](Nc1nc(Nc2cc(C3CC3)[nH]n2)ncc1C#N)c1ccc(F)cc1` [Example 4, 2-[(5-Cyclopropyl-1H-pyrazol-3-yl)amino]-4-{[(1S)-1-(4-fluorophenyl)ethyl]amino}pyrimidine-5-carbonitrile] was tested. Which IC50 did it give?
Answer: 36 nM

Question: Which IC50 does the source give for `Cc1cnc(Nc2cc(C3CC3)[nH]n2)nc1N[C@@H](CO)c1ccc(F)cc1` [Example 5, (2R)-2-({2-[(5-Cyclopropyl-1H-pyrazol-3-yl)amino]-5-methylpyrimidin-4-yl}amino)-2-(4-fluorophenyl)ethanol] here?
Answer: 106 nM

Question: Which IC50 does the source give for `Cc1cc(Nc2ncc(Cl)c(N[C@@H](CO)c3ccc(F)cc3)n2)n[nH]1` [Example 7, (2R)-2-({5-Chloro-2-[(5-methyl-1H-pyrazol-3-yl)amino]pyrimidin-4-yl}amino)-2-(4-fluorophenyl)ethanol] here?
Answer: 3940 nM
